For one data set, the target named is T1, rat P2X7 (Rattus norvegicus, UniProt Q64663).
T1 sequence (Q64663 1-595): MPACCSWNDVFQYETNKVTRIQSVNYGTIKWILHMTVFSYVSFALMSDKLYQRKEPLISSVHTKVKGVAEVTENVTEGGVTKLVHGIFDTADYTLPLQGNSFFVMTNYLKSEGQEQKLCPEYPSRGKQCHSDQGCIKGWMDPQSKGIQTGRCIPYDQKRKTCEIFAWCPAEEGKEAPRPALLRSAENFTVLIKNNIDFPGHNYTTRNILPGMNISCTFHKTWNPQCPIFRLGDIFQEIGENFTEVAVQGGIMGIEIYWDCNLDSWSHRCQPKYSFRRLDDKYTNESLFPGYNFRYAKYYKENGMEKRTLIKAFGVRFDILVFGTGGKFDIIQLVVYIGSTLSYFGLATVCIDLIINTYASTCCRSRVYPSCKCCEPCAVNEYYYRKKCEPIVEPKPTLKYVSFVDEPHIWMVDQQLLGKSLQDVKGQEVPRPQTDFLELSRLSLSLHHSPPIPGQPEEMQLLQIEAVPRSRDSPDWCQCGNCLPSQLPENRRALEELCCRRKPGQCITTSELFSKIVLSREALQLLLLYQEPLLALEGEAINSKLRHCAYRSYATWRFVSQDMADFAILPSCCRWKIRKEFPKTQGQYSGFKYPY
The data set can be described thus: Ca2+ flux (FLIPR) in 1321N1 cells expressing recombinant rat P2X7 channel. To be noted: FLIPR (rat) IC50 (μM), 250 μM BzATP.

The nature of data set [1]: Biodistribution studies of radiotracer in healthy female Wistar rats. In kind it is in vivo. To be noted: for % ID blood: blood mass assumed 7% of body mass; for SUV blood / % ID carcass / % ID cerebellum / SUV cerebellum / % ID cerebrum / SUV cortex / % ID heart / SUV hippocampus / % ID intestines / % ID kidneys / % ID liver / % ID lungs / SUV rest of cerebrum / % ID spleen + pancreas / % ID stomach / SUV striatum / % ID urine / SUV whole cerebrum: mean ± SD, n = 3; for % ID bone: calculated to estimated total bone tissue (% ID/g bone * body mass* 0.12). Here is the method:
HPLC analysis was performed on a LaChrom Elite HPLC system (Hitachi, Armstadt, Germany) connected to a UV spectrometer set at 220 nm. For the analysis of radiolabeled compounds, the HPLC eluate, after passage through the UV detector, was led over a shielded 3-inch NaI(Tl) scintillation detector connected to a multichannel analyser (Gabi box, Raytest, Straubenhardt, Germany). The output signal was recorded and analysed using a GINA Star data acquisition system (Raytest, Straubenhardt, Germany). Radioactivity in samples of biodistribution studies, cell uptake experiments and radiometabolite analysis was quantified using an automated gamma counter equipped with a 3-inch NaI(Tl) well crystal coupled to a multichannel analyser (Wallac 2480 Wizard, Wallac, Turku, Finland). Results were corrected for background radiation, physical decay and counter dead time.
Animals were housed in individually ventilated cages in a thermoregulated (˜22° C.), humidity-controlled facility under a 12 h/12 h light/dark cycle with access to food and water ad libitum. All animal experiments were conducted according to the Belgian code of practice for the care and use of animals, after approval from the KU Leuven University Ethics Committee for Animals.
The biodistribution studies were performed in healthy female Wistar rats (body weight, 185-220 g) at 2, 30 and 60 min after tracer injection (n=3/time point). […] The animals were sacrificed by decapitation at the indicated time points. Blood and major organs were collected in tared tubes and weighed. The radioactivity in the dissected organs and blood was counted using an automated gamma counter. For calculation of total blood radioactivity, blood mass was assumed to be 7% of the body mass.

Description for rat P2X7: P2X7 Antagonism in Recombinant Human P2X7 Cells or Recombinant Rat P2X7 Cells: (a) Ca^2+ Flux and (b) Radioligand Binding
(a) Ca^2+ flux: 1321N1 cells expressing the recombinant human or rat P2X7 channel was cultured in HyQ DME/(HyClone/Dulbecco's Modified Eagle Medium) high glucose supplemented with 10% Fetal Bovine Serum (FBS) and appropriate selection marker. Cells were seeded at a density of 25000 cells/well (96-well clear bottom black walled plates) in 100 μl volume/well. On the day of the experiment, cell plates were washed with assay buffer, containing (in mM): 130 NaCl, 2 KCl, 1 CaCl2), 1 MgCl2, 10 HEPES, 5 glucose; pH 7.40 and 300 mOs. After the wash, cells were loaded with the Calcium-4 dye (Molecular Device) and incubated in the dark for 60 minutes. Test compounds were prepared at 250× the test concentration in neat DMSO. Intermediate 96-well compound plates were prepared by transferring 1.2 μL of the compound into 300 μL of assay buffer. A further 3× dilution occurred when transferring 50 μL/well of the compound plate to 100 μL/well in the cell plate. Cells were incubated with test compounds and dye for 30 minutes. […] The fluorescence change was measured 180 seconds after adding the agonist.

Turning to `CC1c2nnc(-c3ccccn3)n2CCN1C(=O)c1cccc(Cl)c1Cl` (stereo not drawn) [Example 1, (2,3-dichlorophenyl)(8-methyl-3-(pyridin-2-yl)-5,6-dihydro-[1,2,4]triazolo[4,3-a]pyrazin-7(8H)-yl)methanone], the IC50 (as a rule, the concentration that gives 50% inhibition) on rat P2X7 was determined as 1.21 µM.
Still for that read-out and setting: with `C[C@H]1Cn2c(nnc2-c2ccc(F)cc2F)CN1C(=O)c1cccc(Cl)c1Cl` [Example 50, (S)-(2,3-dichlorophenyl)(3-(2,4-difluorophenyl)-6-methyl-5,6-dihydro-[1,2,4]triazolo[4,3-a]pyrazin-7(8H)-yl)methanone] the figure was 1.68 µM; with `C[C@H]1Cn2c(nnc2-c2ncc(F)cn2)CN1C(=O)c1cccc(C(F)(F)F)c1Cl` [Example 74], 0.0101 µM.
As for `C[C@H]1Cn2c(nnc2-c2cc([18F])ccn2)CN1C(=O)c1cccc(Cl)c1Cl` [[^18F]68, (S)-(2,3-dichlorophenyl)(3-(4-[^18F]fluoropyridin-2-yl)-6-methyl-5,6-dihydro-[1,2,4]triazolo[4,3-a]pyrazin-7(8H)-yl)methanone], in data set [1] (2 min after tracer injection), the “% ID blood” value is 6.8 ± 0.6 % ID, the SUV blood came out at 0.97 ± 0.08, the “% ID carcass” value came out at 40.8 ± 0.8 % ID and the “% ID cerebellum” value amounted to 0.1 ± 0.0 % ID. Moreover, in data set [1] (2 min after tracer injection), the SUV cerebellum came out at 1.21 ± 0.22, the “% ID cerebrum” value came to 0.6 ± 0.0 % ID, the SUV cortex was determined as 1.27 ± 0.13 and the “% ID heart” value was found to be 0.9 ± 0.1 % ID. Further, in data set [1] (2 min after tracer injection), the SUV hippocampus amounted to 1.11 ± 0.10, the “% ID intestines” value was found to be 10.6 ± 2.1 % ID, the “% ID kidneys” value is 3.3 ± 0.5 % ID and the “% ID liver” value was 34.6 ± 2.4 % ID. For the same compound, in data set [1] (2 min after tracer injection), the “% ID lungs” value came out at 1.6 ± 0.1 % ID, the “SUV rest of cerebrum” value was determined as 1.20 ± 0.11, the “% ID spleen + pancreas” value stood at 1.3 ± 0.2 % ID and the “% ID stomach” value turned out to be 1.5 ± 0.5 % ID. Besides, in data set [1] (2 min after tracer injection), the SUV striatum came out at 1.19 ± 0.13, the “% ID urine” value came to 0.1 ± 0.0 % ID and the SUV whole cerebrum is listed as 1.20 ± 0.11. Besides, in data set [1] (30 min after tracer injection), the “% ID blood” value is on record as 4.3 ± 0.3 % ID, the SUV blood came to 0.61 ± 0.04, the “% ID carcass” value was 56.6 ± 2.8 % ID and the “% ID cerebellum” value is on record as 0.0 ± 0.0 % ID. In data set [1] (30 min after tracer injection), the SUV cerebellum is 0.33 ± 0.07, the “% ID cerebrum” value is 0.1 ± 0.0 % ID, the SUV cortex is recorded as 0.94 ± 0.29 and the “% ID heart” value amounted to 0.2 ± 0.0 % ID. Also, in data set [1] (30 min after tracer injection), the SUV hippocampus is reported as 0.23 ± 0.04, the “% ID intestines” value was 20.9 ± 6.0 % ID, the “% ID kidneys” value stood at 1.1 ± 0.2 % ID and the “% ID liver” value was 7.5 ± 0.6 % ID. In data set [1] (30 min after tracer injection), the “% ID lungs” value was 0.7 ± 0.1 % ID, the “SUV rest of cerebrum” value was 0.31 ± 0.06, the “% ID spleen + pancreas” value came to 0.3 ± 0.1 % ID and the “% ID stomach” value was determined as 1.6 ± 0.9 % ID. In addition, in data set [1] (30 min after tracer injection), the SUV striatum came to 0.24 ± 0.05, the “% ID urine” value came to 8.4 ± 1.8 % ID and the SUV whole cerebrum stood at 0.31 ± 0.06. Further, in data set [1] (60 min after tracer injection), the “% ID blood” value is given as 2.0 ± 0.5 % ID, the SUV blood is 0.29 ± 0.07, the “% ID carcass” value is reported as 60.4 ± 2.3 % ID and the “% ID cerebellum” value amounted to 0.0 ± 0.0 % ID. Also, in data set [1] (60 min after tracer injection), the SUV cerebellum stood at 0.38 ± 0.08, the “% ID cerebrum” value is listed as 0.1 ± 0.0 % ID, the SUV cortex is given as 0.69 ± 0.17 and the “% ID heart” value was 0.1 ± 0.0 % ID. In data set [1] (60 min after tracer injection), the SUV hippocampus is reported as 0.19 ± 0.03, the “% ID intestines” value was 11.2 ± 0.6 % ID, the “% ID kidneys” value is given as 0.9 ± 0.1 % ID and the “% ID liver” value was 3.61 ± 0.3 % ID. Also, in data set [1] (60 min after tracer injection), the “% ID lungs” value came out at 0.6 ± 0.2 % ID, the “SUV rest of cerebrum” value is on record as 0.25 ± 0.04, the “% ID spleen + pancreas” value amounted to 0.2 ± 0.0 % ID and the “% ID stomach” value is 10.7 ± 3.3 % ID. In data set [1] (60 min after tracer injection), the SUV striatum was 0.19 ± 0.03, the “% ID urine” value is 8.4 ± 1.8 % ID and the SUV whole cerebrum was found to be 0.25 ± 0.04. The “% ID bone” value in data set [1] (2 min) is 8.8 ± 0.8 % ID. Further, the “% ID bone” value in data set [1] (30 min) was 44.5 ± 3.8 % ID. Also, in data set [1] (60 min), the “% ID bone” value is listed as 64.5 ± 5.9 % ID.

The values are drawn from patent US12338243B2, “P2X7 modulators” (JANSSEN PHARMACEUTICA NV, priority 2014, dated 2025).
